# Reference: patent US20240299385A1 (ReWind Therapeutics NV, priority 2021, published 2024)
# Molecular target: T1, human GPR17 receptor (Homo sapiens, UniProt Q13304)
# T1 construct: host or cells: HEK-293
# Assay: Calcium mobilization functional assay (Fluo-8, FLIPR TETRA) in HEK-293 hGPR17 (Gα-q assay)
# Assay type: cell-based
# Settings: antagonism of MDL29,951 (~EC80) induced Ca2+ signal; cell line (HEK-293 hGPR17 or HEK-293 Suchi5 hGPR17) not given
# How it was run: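 Fluo-8-loaded HEK-293 hGPR17 cells (60 min dye loading, room temperature) were preincubated with compound for twenty minutes, then challenged with agonist MDL29,951 at ~EC80, 500 nM. Intracellular calcium release via Gα-q was recorded as FLIPR fluorescence for a further 2 minutes; compounds tested in duplicate.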
# T1 sequence (Q13304 whole entry): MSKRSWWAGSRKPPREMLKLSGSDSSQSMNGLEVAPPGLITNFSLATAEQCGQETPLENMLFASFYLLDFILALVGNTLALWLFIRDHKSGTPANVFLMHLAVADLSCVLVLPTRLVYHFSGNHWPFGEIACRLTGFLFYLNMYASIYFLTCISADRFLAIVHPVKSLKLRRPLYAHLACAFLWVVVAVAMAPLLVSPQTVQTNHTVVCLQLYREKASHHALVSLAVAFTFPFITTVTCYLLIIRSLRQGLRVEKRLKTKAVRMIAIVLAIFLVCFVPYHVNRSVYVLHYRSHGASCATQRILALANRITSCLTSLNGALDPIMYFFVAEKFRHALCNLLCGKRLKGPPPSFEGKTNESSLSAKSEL
row,IC50,Compound
1,500 to 5000 nM,"N#Cc1ccc(NS(=O)(=O)c2c[nH]c(-c3cc(F)cc(Cl)c3)c2)c(F)c1 [Cpd 316, 5-(3-chloro-5-fluoro-phenyl)-N-(4-cyano-2-fluoro-phenyl)-1H-pyrrole-3-sulfonamide]"
2,500 to 5000 nM,"N#Cc1ccc(NS(=O)(=O)c2c[nH]c(-c3ccccc3)c2)c(F)c1F [Cpd 317, N-(4-cyano-2,3-difluoro-phenyl)-5-phenyl-1H-pyrrole-3-sulfonamide]"
3,< 500 nM,"N#Cc1cccc(-c2cc(S(=O)(=O)Nc3cc(F)c(C(F)(F)F)cc3F)c[nH]2)c1 [Cpd 318, 5-(3-cyanophenyl)-N-[2,5-difluoro-4-(trifluoromethyl)phenyl]-1H-pyrrole-3-sulfonamide]"
4,500 to 5000 nM,"Cc1cccc(-c2cc(S(=O)(=O)Nc3cc(F)c(C(F)(F)F)cc3F)c[nH]2)c1F [Cpd 319, N-[2,5-difluoro-4-(trifluoromethyl)phenyl]-5-(2-fluoro-3-methyl-phenyl)-1H-pyrrole-3-sulfonamide]"
5,500 to 5000 nM,"O=S(=O)(Nc1cc(F)c(C(F)(F)F)cc1F)c1c[nH]c(-c2cc(Cl)ccc2F)c1 [Cpd 320, 5-(5-chloro-2-fluoro-phenyl)-N-[2,5-difluoro-4-(trifluoromethyl)phenyl]-1H-pyrrole-3-sulfonamide]"
6,500 to 5000 nM,"Cc1cccc(F)c1-c1cc(S(=O)(=O)Nc2cc(F)c(C(F)(F)F)cc2F)c[nH]1 [Cpd 321, N-[2,5-difluoro-4-(trifluoromethyl)phenyl]-5-(2-fluoro-6-methyl-phenyl)-1H-pyrrole-3-sulfonamide]"
7,500 to 5000 nM,"N#Cc1ccc(NS(=O)(=O)c2c[nH]c(-c3ccccn3)c2)c(F)c1F [Cpd 322, N-(4-cyano-2,3-difluoro-phenyl)-5-(2-pyridyl)-1H-pyrrole-3-sulfonamide]"
8,500 to 5000 nM,"COc1cccc(-c2cc(S(=O)(=O)Nc3cc(F)c(C(F)(F)F)cc3F)c[nH]2)c1 [Cpd 323, N-[2,5-difluoro-4-(trifluoromethyl)phenyl]-5-(3-methoxyphenyl)-1H-pyrrole-3-sulfonamide]"
9,5000 to 50000 nM,"COc1ccc(-c2cc(S(=O)(=O)Nc3cc(F)c(C(F)(F)F)cc3F)c[nH]2)c(F)c1 [Cpd 324, N-[2,5-difluoro-4-(trifluoromethyl)phenyl]-5-(2-fluoro-4-methoxy-phenyl)-1H-pyrrole-3-sulfonamide]"
10,500 to 5000 nM,"COc1cccc(-c2cc(S(=O)(=O)Nc3cc(F)c(C(F)(F)F)cc3F)c[nH]2)c1F [Cpd 325, N-[2,5-difluoro-4-(trifluoromethyl)phenyl]-5-(2-fluoro-3-methoxy-phenyl)-1H-pyrrole-3-sulfonamide]"
11,< 500 nM,"Cc1cc(NS(=O)(=O)c2c[nH]c(-c3ccccc3)c2)c(F)cc1C#N [Cpd 326, N-(4-cyano-2-fluoro-5-methyl-phenyl)-5-phenyl-1H-pyrrole-3-sulfonamide]"
12,500 to 5000 nM,"O=S(=O)(Nc1cc(F)c(C(F)(F)F)cc1F)c1c[nH]c(-c2cccc(Cl)c2F)c1 [Cpd 327, 5-(3-chloro-2-fluoro-phenyl)-N-[2,5-difluoro-4-(trifluoromethyl)phenyl]-1H-pyrrole-3-sulfonamide]"
13,500 to 5000 nM,"O=S(=O)(Nc1c(F)cc(C(F)(F)F)cc1F)c1c[nH]c(-c2ccccc2)c1 [Cpd 328, N-[2,6-difluoro-4-(trifluoromethyl)phenyl]-5-phenyl-1H-pyrrole-3-sulfonamide]"
14,500 to 5000 nM,"Cc1ccc(-c2cc(S(=O)(=O)Nc3ccc(C#N)cc3F)c[nH]2)c(C)c1 [Cpd 329, N-(4-cyano-2-fluoro-phenyl)-5-(2,4-dimethylphenyl)-1H-pyrrole-3-sulfonamide]"
15,5000 to 50000 nM,"N#Cc1ccc(-c2cc(S(=O)(=O)Nc3cc(F)c(C(F)(F)F)cc3F)c[nH]2)cc1 [Cpd 330, 5-(4-cyanophenyl)-N-[2,5-difluoro-4-(trifluoromethyl)phenyl]-1H-pyrrole-3-sulfonamide]"
16,< 500 nM,"Cc1ccc(C)c(-c2cc(S(=O)(=O)Nc3ccc(C#N)cc3F)c[nH]2)c1 [Cpd 331, N-(4-cyano-2-fluoro-phenyl)-5-(2,5-dimethylphenyl)-1H-pyrrole-3-sulfonamide]"
17,500 to 5000 nM,"O=S(=O)(Nc1ccc(C(F)(F)F)c(F)c1F)c1c[nH]c(-c2ccccn2)c1 [Cpd 332, N-[2,3-difluoro-4-(trifluoromethyl)phenyl]-5-(2-pyridyl)-1H-pyrrole-3-sulfonamide]"
18,< 500 nM,"N#Cc1cc(F)c(NS(=O)(=O)c2c[nH]c(-c3ccccc3)c2)cc1Cl [Cpd 333, N-(5-chloro-4-cyano-2-fluoro-phenyl)-5-phenyl-1H-pyrrole-3-sulfonamide]"
19,500 to 5000 nM,"O=S(=O)(Nc1ccc(C(F)(F)F)c(F)c1F)c1c[nH]c(-c2ccccc2)c1 [Cpd 334, N-[2,3-difluoro-4-(trifluoromethyl)phenyl]-5-phenyl-1H-pyrrole-3-sulfonamide]"
20,5000 to 50000 nM,"O=S(=O)(Nc1ccc(C(F)(F)F)c(Cl)c1F)c1c[nH]c(-c2ccccn2)c1 [Cpd 335, N-[3-chloro-2-fluoro-4-(trifluoromethyl)phenyl]-5-(2-pyridyl)-1H-pyrrole-3-sulfonamide]"

row,IC50,Compound
1,500 to 5000 nM,"Cc1cc(NS(=O)(=O)c2c[nH]c(-c3ccccn3)c2)c(F)cc1C(F)(F)F [Cpd 336, N-[2-fluoro-5-methyl-4-(trifluoromethyl)phenyl]-5-(2-pyridyl)-1H-pyrrole-3-sulfonamide]"
2,500 to 5000 nM,"Cc1cccc(-c2cc(S(=O)(=O)Nc3cc(F)c(C(F)(F)F)cc3F)c[nH]2)c1 [Cpd 337, N-[2,5-difluoro-4-(trifluoromethyl)phenyl]-5-(m-tolyl)-1H-pyrrole-3-sulfonamide]"
3,500 to 5000 nM,"Cc1cc(NS(=O)(=O)c2c[nH]c(-c3ccccc3)c2)c(F)cc1C(F)(F)F [Cpd 338, N-[2-fluoro-5-methyl-4-(trifluoromethyl)phenyl]-5-phenyl-1H-pyrrole-3-sulfonamide]"
4,< 500 nM,"O=S(=O)(Nc1cc(F)c(C(F)(F)F)cc1F)c1c[nH]c(-c2nccs2)c1 [Cpd 339, N-[2,5-difluoro-4-(trifluoromethyl)phenyl]-5-thiazol-2-yl-1H-pyrrole-3-sulfonamide]"
5,500 to 5000 nM,"N#Cc1ccc(NS(=O)(=O)c2c[nH]cc2Cc2cccc(OC3CC3)c2)c(F)c1 [Cpd 340, N-(4-cyano-2-fluoro-phenyl)-4-[[3-(cyclopropoxy)phenyl]methyl]-1H-pyrrole-3-sulfonamide]"
6,500 to 5000 nM,"CC(C)Oc1cccc(Cc2c[nH]cc2S(=O)(=O)Nc2ccc(C#N)cc2F)c1 [Cpd 341, N-(4-cyano-2-fluoro-phenyl)-4-[(3-isopropoxyphenyl)methyl]-1H-pyrrole-3-sulfonamide]"
7,500 to 5000 nM,"N#Cc1ccc(NS(=O)(=O)c2c[nH]cc2Cc2cccc(OCC3CC3)c2)c(F)c1 [Cpd 342, N-(4-cyano-2-fluoro-phenyl)-4-[[3-(cyclopropylmethoxy)phenyl]methyl]-1H-pyrrole-3-sulfonamide]"
8,< 500 nM,"N#Cc1ccc(NS(=O)(=O)c2c[nH]cc2Cc2cccs2)c(F)c1 [Cpd 343, N-(4-cyano-2-fluoro-phenyl)-4-(2-thienylmethyl)-1H-pyrrole-3-sulfonamide]"
9,500 to 5000 nM,"O=S(=O)(Nc1cc(F)c(C(F)(F)F)cc1F)c1c[nH]c(-c2cccc(C(F)(F)F)n2)c1 [Cpd 344, N-[2,5-difluoro-4-(trifluoromethyl)phenyl]-5-[6-(trifluoromethyl)-2-pyridyl]-1H-pyrrole-3-sulfonamide]"
10,500 to 5000 nM,"O=S(=O)(Nc1cc(F)c(C(F)(F)F)cc1F)c1c[nH]c(-c2ccc(Br)cn2)c1 [Cpd 345, 5-(5-bromo-2-pyridyl)-N-[2,5-difluoro-4-(trifluoromethyl)phenyl]-1H-pyrrole-3-sulfonamide]"
11,< 500 nM,"O=S(=O)(Nc1cc(F)c(C(F)(F)F)cc1F)c1c[nH]c(-c2ncccc2Br)c1 [Cpd 346, 5-(3-bromo-2-pyridyl)-N-[2,5-difluoro-4-(trifluoromethyl)phenyl]-1H-pyrrole-3-sulfonamide]"
12,500 to 5000 nM,"N#Cc1ccc(NS(=O)(=O)c2c[nH]c(-c3ccc(F)cn3)c2)c(F)c1 [Cpd 347, N-(4-cyano-2-fluoro-phenyl)-5-(5-fluoro-2-pyridyl)-1H-pyrrole-3-sulfonamide]"
13,< 500 nM,"Cc1cccnc1-c1cc(S(=O)(=O)Nc2ccc(C#N)cc2F)c[nH]1 [Cpd 348, N-(4-cyano-2-fluoro-phenyl)-5-(3-methyl-2-pyridyl)-1H-pyrrole-3-sulfonamide]"
14,< 500 nM,"N#Cc1ccc(NS(=O)(=O)c2c[nH]c(-c3ncccc3Cl)c2)c(F)c1 [Cpd 349, 5-(3-chloro-2-pyridyl)-N-(4-cyano-2-fluoro-phenyl)-1H-pyrrole-3-sulfonamide]"
15,< 500 nM,"N#Cc1ccc(NS(=O)(=O)c2c[nH]c(-c3ncccc3Br)c2)c(F)c1 [Cpd 350, 5-(3-bromo-2-pyridyl)-N-(4-cyano-2-fluoro-phenyl)-1H-pyrrole-3-sulfonamide]"
16,500 to 5000 nM,"O=S(=O)(Nc1cc(F)c(C(F)(F)F)cc1F)c1c[nH]c(-c2ccccc2Cl)c1 [Cpd 351, 5-(2-chlorophenyl)-N-[2,5-difluoro-4-(trifluoromethyl)phenyl]-1H-pyrrole-3-sulfonamide]"
17,500 to 5000 nM,"COc1cc(F)ccc1-c1cc(S(=O)(=O)Nc2ccc(C#N)cc2F)c[nH]1 [Cpd 352, N-(4-cyano-2-fluoro-phenyl)-5-(4-fluoro-2-methoxy-phenyl)-1H-pyrrole-3-sulfonamide]"
18,< 500 nM,"N#Cc1cc(F)c(NS(=O)(=O)c2c[nH]c(-c3ccccn3)c2)cc1F [Cpd 353, N-(4-cyano-2,5-difluoro-phenyl)-5-(2-pyridyl)-1H-pyrrole-3-sulfonamide]"
19,500 to 5000 nM,"N#Cc1cc(F)c(NS(=O)(=O)c2c[nH]c(-c3ccccn3)c2)c(F)c1 [Cpd 354, N-(4-cyano-2,6-difluoro-phenyl)-5-(2-pyridyl)-1H-pyrrole-3-sulfonamide]"
20,500 to 5000 nM,"N#Cc1ccccc1-c1cc(S(=O)(=O)Nc2cc(F)c(C(F)(F)F)cc2F)c[nH]1 [Cpd 355, 5-(2-cyanophenyl)-N-[2,5-difluoro-4-(trifluoromethyl)phenyl]-1H-pyrrole-3-sulfonamide]"
